In patent US20190365700A1, “Methods for Isolating Tumor-Specific Immune Cells from a Subject for Adoptive Cell Therapy and Cancer Vaccines” (CRITITECH, INC., priority 2018, published 2019):
Values after ≈ are worked out from the molar mass of the structure shown. Values joined by “and” are separate entries in the source; they are usually repeats but may differ in a detail not shown here. Equal values may be shown once. Marks after values point to notes of the source that are not given here.

How the values were obtained:
[1] = tested on: human renal cell adenocarcinoma (786-O cell line); experiment: Renal cell adenocarcinoma xenograft: histology and IHC (viable carcinoma size, necrosis, lymphohistiocytic infiltrate); assay type: in vivo, Sprague-Dawley Rag2; Il2rg null (SRG®) rat
Excerpt: Microscopic Examination: Tissues fixed with 10% NBF were embedded in paraffin. Each tumor was cut into 2-3 pieces and embedded and sectioned together.

[2] = tested on: UM-UC-3 bladder cancer cell line (ATCC-CRL-1749) tumors; experiment: Human bladder cancer (UM-UC-3) mouse xenograft study: tumor volume, body weight, observations; assay type: in vivo, Hsd:Athymic Nude-Foxnlnu nude mice
Protocol: Tumor volume was determined with calipers. […] Animals were weighed 2×/week.
At day 18 after tumor implant, when average tumor size was between 50-325 mm^3, animals were sorted into five groups with equal average tumor sizes and were treated as shown in Table 25 below.
The second treatments (2nd cycle) occurred 7 days following first treatment (1st cycle) and third treatments (3rd cycle) occurred 14 days following the first treatment. The docetaxel solution IV was administered via the tail vein.
Vehicle (Control): Diluted 1 ml of the 1% Polysorbate 80/8% Ethanol in normal saline (0.9% Sodium Chloride for Injection) reconstitution solution with 1.5 mL of normal saline (0.9% Sodium Chloride for Injection, USP). […] Vigorously hand shook the vial with inversions for 1 minute. […] Allowed the suspension to sit undisturbed for at least 5 minutes to reduce entrapped air and foam. […] Vortexed to mix.

[3] = tested on: UM-UC-3 bladder cancer cell line (ATCC-CRL-1749) tumors; experiment: Bladder cancer xenograft: histology and IHC (viable carcinoma size, necrosis, macrophage infiltrate, TLS, necropsy volume); assay type: in vivo, Hsd:Athymic Nude-Foxnlnu nude mice
[4] = tested on: human renal cell adenocarcinoma (786-O cell line); experiment: Rat xenograft model of human renal cell adenocarcinoma: tumor volume, body weight, observations; assay type: in vivo, Sprague-Dawley Rag2; Il2rg null (SRG®) rat; conditions: IV docetaxel, 3 weekly cycles
[5] = tested on: Renca syngeneic renal carcinoma
Excerpt: Animals were monitored as a group. […] When the endpoint was reached, all the animals were euthanized. […]

[6] = tested on: Renca syngeneic renal carcinoma; experiment: Renca syngeneic xenograft study: secondary tumor growth (groups 8-10); assay type: in vivo, female BALB/c mice; conditions: IV docetaxel doses
Protocol: The schedule in Table 39 was followed.
Cell Injection Volume: 0.1 mL/mouse. Age at Start Date: 8 to 12 weeks. […] Body Weight: 5/2 then tiwk to end. Caliper Measurement: tiwk to end. Double caliper measurements were performed for Groups 8-10. […] The group was not euthanized and recovery was allowed.
Endpoints: Groups 1-7: Endpoint TGI. Animals were monitored as a group.

[7] = tested on: immune cells (CD45+, CD4+, CD8+, Treg, MDSC, M1 and M2 macrophages) in blood; experiment: Renca study: flow cytometry of immune cells in blood; assay type: in vivo, female BALB/c mice; conditions: IV Docetaxel, individual animals
Protocol: Blood Collection: Collected full volume blood by terminal cardiac puncture under isoflurane anesthesia. Processed blood for: Whole Blood: anti-coagulant—K2EDTA, preservation—Cooled 4° C., shipping condition—4° C. (wet ice). Retained at CRL-NC for flow cytometry. See Flow panel in Table 40 below.
(§1) Peripheral blood and tumor tissue were collected for analysis via flow cytometry. Cell types analyzed included T-Cells: CD4+, CD8+(Tumor Suppression); Treg (Tumor Promotion); M1 Macrophages (Tumor Suppression); M2 Macrophages (Tumor Promotion); and […].

[8] = tested on: immune cells (CD45+, CD4+, CD8+, Treg, MDSC, M1 and M2 macrophages) in tumor tissue; experiment: Renca study: flow cytometry of immune cells in tumor tissue; assay type: in vivo, female BALB/c mice; conditions: individual animals, IV docetaxel group
Protocol: Organ Collection: Tumor (divide into 2 parts). […] Sent to laboratory for IHC staining. Part 2: preservation—processed to single cell suspension, shipping condition—4° C. (wet ice). Retained at CRL-NC for flow cytometry. See Flow panel in Table 40 below. Tumor preservation for early euthanasia in Groups 2-10: Excised tumor and surrounding area from the mammary fat pad area (cranial) to just past tumor (caudal). The region included the inguinal lymph node. Sectioned this sample every 4 mm from the cranial to caudal end and enclosed in separate cassettes labeled in order.
as §1

[9] = Solubility of the active in receptor fluid; assay type: physicochemical; conditions: 96 wt % PBS pH 7.4 and 4 wt % HPBCD
Protocol: The receptor fluid was degassed by filtering the receptor fluid through a ZapCap CR 0.2 μm membrane while pulling vacuum. The filtered receptor fluid was stirred for an additional 20 minutes while maintaining vacuum to ensure complete degassing.

[10] = IV Docetaxel 3 cycles, 2 animals
[11] = IV docetaxel 3 cycles, two cases

Compound: CC(=O)O[C@@]12CO[C@@H]1C[C@H](O)[C@@]1(C)C(=O)[C@H](O)C3=C(C)[C@@H](OC(=O)[C@H](O)[C@@H](NC(=O)OC(C)(C)C)c4ccccc4)C[C@@](O)([C@@H](OC(=O)c4ccccc4)[C@H]21)C3(C)C [Doce]
- Number of animals with <5% of tissue showing necrosis ([1]; IV docetaxel, 2 animals): 2
- Lymphohistiocytic infiltrate density: number of animals graded Mild ([1]; IV docetaxel, 2 animals, H/E and CD11b IHC): 2

Compound: CC(=O)O[C@@]12CO[C@@H]1C[C@H](O)[C@@]1(C)C(=O)[C@H](O)C3=C(C)[C@@H](OC(=O)[C@H](O)[C@@H](NC(=O)OC(C)(C)C)c4ccccc4)C[C@@](O)([C@@H](OC(=O)c4ccccc4)[C@H]21)C3(C)C [docetaxel]
- tumor volumes ([2]; Docetaxel IV 30 mg/kg, 3 cycles, 61 days): decreased initially
- effectiveness by initial tumor size ([2]; Docetaxel IV 3 cycles): somewhat effective at treating small tumors, but not very effective in treating large tumors
- initial animal weight loss ([2]; Docetaxel IV 3 cycles vs nDoce IT 1, 2, 3 cycles): generally greater
- signs of peripheral neuropathy ([2]; Docetaxel IV 3 cycles vs nDoce IT 3 cycles): greater signs of peripheral neuropathy
- general histological observation (H&E) ([3]; Docetaxel Solution IV 3 cycles): many viable appearing tumor masses with some macrophage and occasional lymphocytic response along with some tumor necrosis
- animals with 11-50% of tumor showing necrosis [3, 10]: 1
- animals with 50-90% of tumor showing necrosis [3, 10]: 1
- animals with maximum size of viable invasive carcinoma on the slide >10 mm [3, 10]: 2*
- Macrophage infiltrate density: number of animals graded Mild ([3]; IV Docetaxel 3 cycles, surrounding non-neoplastic tissue, H&E and CD68 IHC): 2
- TLSs [3, 11]: no TLSs present
- tumor masses, maximum dimension on the slide [3, 11]: 11 mm and 15 mm
- tumor growth compared to vehicle control [4]: partial tumor growth inhibition
- histology vs vehicle control (H&E) ([1]; Docetaxel (IV) 3 cycles, female rat): no difference
- Number of animals with residual viable carcinoma >10 mm on slide ([1]; IV docetaxel, 2 animals): 2
- tumor volume compared to vehicle ([5]; IV docetaxel Day 1 (10 mg/kg) and Day 11 (5 mg/kg)): No difference
- toxicity leading to modified administration schedule ([5]; mouse, in vivo, iv): systemic toxicity
- growth rate of the secondary Renca tumors [6]: did not reduce the growth rate
- CD8 (% of CD45) [7]: 1.18 % of CD45 and 1.46 % of CD45 and 1.58 % of CD45 and 1.55 % of CD45 and 1.59 % of CD45 and 0.55 % of CD45 and 1.28 % of CD45 and 1.03 % of CD45 and 1.02 % of CD45 and 0.73 % of CD45
- CD8 Count [7]: 17438 and 12556 and 18524 and 4199 and 7615 and 8711 and 14504 and 9765 and 8882 and 12561
- CD45 (% of Live) [7]: 98.5 % of Live and 80.9 % of Live and 97.9 % of Live and 95.7 % of Live (2×) and 96.1 % of Live and 95.5 % of Live and 95.6 % of Live and 97 % of Live and 96.4 % of Live
- CD45 Count [7]: 1360000 (2×) and 1180000 and 1200000 and 1010000 and 348468 and 983000 and 1340000 and 1210000 and 968000
- Conv CD4 (% of CD45) [7]: 2.49 % of CD45 and 3.95 % of CD45 and 3.1 % of CD45 and 2.64 % of CD45 and 2.38 % of CD45 and 1.58 % of CD45 and 3.25 % of CD45 and 1.32 % of CD45 and 2.46 % of CD45 and 1.77 % of CD45
- Conv CD4 Count [7]: 44244 and 33048 and 31633 and 9629 and 12646 and 22949 and 34177 and 22034 and 21457 and 27808
- Live Count [7]: 1420000 and 1220000 and 1250000 and 1030000 and 350478 and 1390000 and 1010000 and 1360000 and 1260000 and 997000
- M1 Mac (% of CD45) [7]: 15.1 % of CD45 and 9.39 % of CD45 and 12.3 % of CD45 and 6.95 % of CD45 and 7.96 % of CD45 and 6.79 % of CD45 and 9.93 % of CD45 and 10.7 % of CD45 and 9.78 % of CD45 and 9.15 % of CD45
- M1 Mac Count [7]: 135234 and 150642 and 83214 and 124451 and 18526 and 145555 and 84022 and 122157 and 110868 and 43948
- M2 Mac (% of CD45) [7]: 0.12 % of CD45 and 0.054 % of CD45 and 0.066 % of CD45 and 0.14 % of CD45 and 0.17 % of CD45 and 0.2 % of CD45 and 0.056 % of CD45 and 0.48 % of CD45 and 0.07 % of CD45 and 0.19 % of CD45
- M2 Mac Count [7]: 765 and 815 and 1633 and 582 and 373 and 875 and 257 and 2069 and 2323 and 512
- MDSC (% of CD45) [7]: 72.7 % of CD45 and 64.8 % of CD45 and 63.3 % of CD45 and 75.9 % of CD45 and 72.8 % of CD45 and 79 % of CD45 and 73.4 % of CD45 and 72.5 % of CD45 and 77.7 % of CD45 and 76.3 % of CD45
- MDSC Count [7]: 1000000 (2×) and 871000 and 909000 and 742000 and 255851 and 734000 (2×) and 1010000 and 925000
- Treg (% of CD45) [7]: 0.092 % of CD45 and 0.22 % of CD45 and 0.13 % of CD45 and 0.073 % of CD45 and 0.035 % of CD45 and 0.078 % of CD45 and 0.087 % of CD45 and 0.047 % of CD45 and 0.1 % of CD45 and 0.071 % of CD45
- Treg Count [7]: 1182 and 578 and 872 and 461 and 222 and 871 and 1300 and 870 and 856 and 992
- CD8 (% of CD45) [8]: 0.75% and 0.5% and 0.28% and 0.31% (2×) and 0.061% and 0.32% and 0.45% and 0.81% and 0.33%
- CD8 Count [8]: 33 and 40 and 26 and 193 and 9 and 145 and 36 and 214 and 137 and 270
- CD45 (% of Live) [8]: 38.2% and 42.8% and 52.7% and 68.9% and 74.1% and 57.8% and 32.5% and 63.3% and 73% and 67.2%
- CD45 Count [8]: 4375 and 8052 and 9275 and 62614 and 14728 and 45332 and 8088 and 26310 and 41555 and 86029
- Conv CD4 (% of CD45) [8]: 1.23% and 1.15% and 1.51% and 0.44% and 0.16% and 0.58% and 0.62% and 2.55% and 1.65% and 0.59%
- Conv CD4 Count [8]: 54 and 93 and 140 and 275 and 23 and 265 and 50 and 670 and 687 and 509
- Live Count [8]: 11443 and 18796 and 17590 and 90940 and 19863 and 78365 and 24901 and 41595 and 56947 and 128055
- M1 Mac (% of CD45) [8]: 10.5% and 6.97% and 8.59% and 8.44% and 3.34% and 9.16% and 8.65% and 7.47%
- M1 Mac Count [8]: 460 and 561 and 797 and 5285 and 492 and 4154 and 700 and 3186 and 5446 and 6428
- M2 Mac (% of CD45) [8]: 28% and 25.2% and 18.6% and 25.3% and 2.66% and 54.1% and 8.62% and 26.9% and 52.8% and 67.2%
- M2 Mac Count [8]: 1223 and 2030 and 1727 and 15846 and 392 and 24543 and 697 and 7074 and 21953 and 57825
- MDSC (% of CD45) [8]: 25.1% and 32.8% and 42.5% and 44% and 83.3% and 20% and 70.4% and 37.3% and 10.4%
- MDSC Count [8]: 1098 and 2644 and 3940 and 27578 and 12265 and 9063 and 5696 and 9821 and 4302 and 11067
- Treg (% of CD45) [8]: 1.58% and 0.55% and 0.32% and 0.62% and 0.16% and 0.54% and 0.21% and 1.05% and 0.42% and 0.6%
- Treg Count [8]: 69 and 44 and 30 and 386 and 23 and 244 and 17 and 276 and 176 and 520

Compound: CC(=O)O[C@H]1C(=O)[C@@]2(C)[C@H]([C@H](OC(=O)c3ccccc3)[C@]3(O)C[C@H](OC(=O)[C@H](O)[C@@H](NC(=O)c4ccccc4)c4ccccc4)C(C)=C1C3(C)C)[C@]1(OC(C)=O)CO[C@@H]1C[C@@H]2O [paclitaxel]
- solubility in the receptor fluid [9]: ~0.4 µg/mL (≈ 0.468 µM)
